Measurements from patent publication US6849598B1, “Therapeutic compositions comprising bactericidal/permeability-increasing (BPI) protein products” (XOMA, priority 1995, dated 2005).

Tested on: P. aeruginosa (ATCC 19660)
Assay: Antibiotic susceptibility (MIC, Microscan® MIC Plus Type 2 panel) with rBPI21/P123 and EDTA
Type: cell-based
Design: key to susceptibility interpretation of MIC (superscript): R: resistant; I: intermediate; S: susceptible
Settings: for effect of EDTA added to the rBPI21/P123 formulation on susceptibility of the strain to the antibiotic: summary of Table 17
Protocol: In additional experiments, a BPI protein product, rBPI21, was formulated with an anti-bacterial activity enhancing poloxamer, specifically PLURONIC P123, and with various concentrations of EDTA, and was evaluated for its effect on the antibiotic susceptibility of a Pseudomonas aeruginosa (ATCC 19660). Antibiotic susceptibility was determined using Microscan® panel plates (Dade Microscan, West Sacramento, Calif.) that allow simultaneous determination of minimum inhibitory concentrations for a number of different antibiotics.
The antimicrobial susceptibility tests performed on the Microscan® panel plates are miniaturizations of the broth dilution susceptibility test. Antimicrobial agents are serially diluted in Mueller-Hinton broth (supplemented with calcium and magnesium, or with sodium chloride for oxacillin, or with thymidine phosphorylase for trimethoprim, sulfamethoxazole and trimethoprim/ sulfamethoxazole) to concentrations bridging the range of clinical interest. One well on the 96-well Microscan® plate is a growth control well that contains dehydrated broth only. The remaining wells contain dehydrated broth and antibiotic (or broth and biochemical reagent indicator), which is rehydrated to the desired concentration by inoculation of a standardized suspension of test organism. The chromogenic biochemical agent indicators are used to identify and characterize the species of bacteria based on detection of pH changes and substrate utilization. […] Gram-negative and gram positive organisms may be tested using any of the Microscan® panel plates (Microscan®, Dade Microscan, West Sacramento, Calif.). In these experiments with P. aeruginosa, the MIC Plus Type 2 panel plates were used. The concentrations of antibiotics tested in this panel plate are shown below in Table 16. The antibiotic susceptibility standards (interpretation of an MIC as resistant, intermediate or susceptible according to Microscan®'s NCCLS-derived standards) applicable to the gram-negative organisms that may be tested in each panel plate appear below in Table 16A.
For these experiments with P. aeruginosa, the following procedure was performed: The organism was streaked onto TSA plates (Remel, Lenexa, Kans.) and incubated for 18-24 hours overnight. Well-isolated A, colonies from the plates were emulsified in 3 ml of sterile Inoculum Water d(catalog no. B1015-2, MicrosScan® system, Dade Microscan, West Sacramento, Calif.) to a final turbidity equivalent to 0.5 McFarland Barium Sulfate standard. This cell suspension was vortexed for 2 to 3 seconds and 100 μl was transferred to glass tubes containing 25 ml of Inoculum Water with Pluronic-D (catalog no. B1015-7, MicroScan® system, Dade Microscan, West Sacramento, Calif.) (hereinafter “Pluronic Inoculum Water”), or 25 ml of Pluronic Inoculum Water into which rBPI21 in 0.2% PLURONIC P123, 0.002% TWEEN 80, 5mM sodium citrate, 150 mM NaCl (“rBPI21/P123”) had been diluted to 64 μg/ml rBPI21.
The 25 ml of this inoculum containing rBPI21 was mixed by inversion and poured into a tray. The inoculum was drawn up into a manual 96-well pipetting system (RENOK^− rehydrator-inoculator system, Dade Microscan, West Sacramento, Calif.) designed for use with the Microscan® panel plates, and 110 μl of the inoculum was delivered to each well of a Microscan® MIC Plus Type 2 panel plate. When added to the wells, this inoculum achieves a final bacterial concentration of 4×10^5 to 7×10^5 CFU/ml. The panel plates were then incubated at 35° C. for 15-24 hours and read visually for cell growth.
No growth was defined as a slight whiteness in the well or a clear broth. Growth appeared as turbidity which could take the form of a white haze throughout the well, a white button in the center of the well, or a fine granule growth throughout the well. All wells were read against a black indirectly lighted background. Visual results of the biochemical reactions were read into a database for bacterial identification.

[1] = rBPI21/P123 at 64 μg/ml rBPI21, With 0% EDTA
[2] = rBPI21/P123 at 64 μg/ml rBPI21, With 0.01% EDTA
[3] = rBPI21/P123 at 64 μg/ml rBPI21, With 0.05% EDTA
[4] = rBPI21/P123 at 64 μg/ml rBPI21, With 0.1% EDTA

Row | Molecule | Minimum Inhibitory Concentration of Antibiotic (Control (No BPI21)) [µg/mL] | susceptibility interpretation of MIC (superscript) (Control (No BPI21)) | Minimum Inhibitory Concentration of Antibiotic [1] [µg/mL] | susceptibility interpretation of MIC (superscript) [1] | Minimum Inhibitory Concentration of Antibiotic [2] [µg/mL] | susceptibility interpretation of MIC (superscript) [2] | Minimum Inhibitory Concentration of Antibiotic [3] [µg/mL] | susceptibility interpretation of MIC (superscript) [3] | Minimum Inhibitory Concentration of Antibiotic [4] [µg/mL] | susceptibility interpretation of MIC (superscript) [4] | effect of EDTA added to the rBPI21/P123 formulation on susceptibility of the strain to the antibiotic
1 | Ticarcillin/K Clavulanate [Ticar/K Clavulanate] | < 16 | S | < 16 | S | < 16 | S | < 16 | S | < 16 | S | 
2 | CC1(C)S[C@@H]2[C@H](NC(=O)[C@H](NC(=O)N3CCNC3=O)c3ccccc3)C(=O)N2[C@H]1C(=O)O [Azlocillin] | < 64 | S | < 64 | S | < 64 | S | < 64 | S | < 64 | S | 
3 | C[C@H]1[C@H](NC(=O)/C(=N\OC(C)(C)C(=O)O)c2csc(N)n2)C(=O)N1S(=O)(=O)O [Aztreonam] | 4 | S | 4 | S | < 1 | S | 2 | S | < 1 | S | increasing the susceptibility
4 | Amoxicillin/K Clavulanate [Amox/K Clavulanate] | > 32 | R | > 32 | R | < 1 | S | 32 | R | < 1 | S | reversing resistance
5 | CO/N=C(\C(=O)N[C@@H]1C(=O)N2C(C(=O)O)=C(COC(C)=O)CS[C@H]12)c1csc(N)n1 [Cefotaxime] | 32 | I | 16 | I | 4 | S | < 2 | S | < 2 | S | increasing the susceptibility
6 | CO[C@@]1(NC(=O)C2SC(=C(C(N)=O)C(=O)O)S2)C(=O)N2C(C(=O)O)=C(CSc3nnnn3C)CS[C@@H]21 (stereo partly drawn) [Cefotetan] | > 32 | R | > 32 | R | < 4 | S | < 4 | S | < 4 | S | 
